Reference: US10065990B2, “Cyclic peptide compound, and preparation method, pharmaceutical composition and use thereof” (HANGZHOU GUANYU BIO-MEDICAL CO., LTD, priority 2013, dated 2018)
Where two headings read alike, the source gives them in different places.

Assays:
[1] = tested on: MCF-7 (human breast cancer cells); assay: MTT cancer cell growth inhibition; type: cell-based; conditions: Homo sapiens, MCF7, 72 h, 72 hours incubation, read-out: GI50 MCF
Source text: (§1) MTT assay principle is yellow MTT can penetrate membrane into the cell, succinic dehydrogenase of the mitochondria in living cells can make exogenous MTT reduction of insoluble in water of blue-violet acicular formazan for crystallization and deposition in the cell, crystallization can be dissolved dimethyl sulfoxide (DMSO) solution, detected its absorbance at 490 nm/570 nm wavelength by enzyme-linked immunosorbent assay, which can reflect the number of cells.
(§2) Using DMEM+10% FBS culture medium or using 1640+10% FBS culture, respectively.
(§3) a) Cells were seeded in 96-well plates with the inoculation of 1500/well, 190 μl/hole, 37° C., 5% of CO2 incubator overnight;
(§4) b) The next day each well was added 10 μl of different drugs. The final concentration of drug was 10^−5˜10^−10M, three parallel holes; 37° C., 5% CO2 culture incubator for 72 hours incubation;
(§5) c) Per well was added 20 μl 5 mg/ml of MTT, 37° C., 5% CO2 culture incubator for 4 hours incubation;
(§6) d) The supernatant was discarded. Each well was added 100 μl of DMSO and oscillation;
(§7) e) 570 nm readings. Calculate cell viability. GI50 calculation based on the results.

[2] = tested on: Bel-7402 (human hepatoma cells); assay: MTT cancer cell growth inhibition; type: cell-based; conditions: Homo sapiens, Bel-7402, 72 h, MTT, 72 hours incubation, Bel-7402 cells; read-out: GI50 Bel-7402
Source text: as §1, §2, §3, §4, §5, §6, §7

[3] = tested on: PANC-1 (Pac-1, human pancreatic cancer cells); assay: MTT cancer cell growth inhibition; type: cell-based; conditions: Homo sapiens, PANC-1, 72 h, MTT, 72 hours incubation, read-out: GI50 PAN
Source text: as §1, §2, §3, §4, §5, §6, §7

[4] = tested on: MDA-MB-231 (breast cancer cells); assay: MTT cancer cell growth inhibition; type: cell-based; conditions: Homo sapiens, MDA-MB-231, 72 h, read-out: GI50 MDA-MB-231, MTT, 72 hours incubation, MDA-MB-231 cells
Source text: as §1, §2, §3, §4, §5, §6, §7

[5] = tested on: N-87 (human gastric cancer cells); assay: MTT cancer cell growth inhibition; type: cell-based; conditions: Homo sapiens, 72 h, MTT, 72 hours incubation, N-87 cells; read-out: GI50 N-87
Source text: as §1, §2, §3, §4, §5, §6, §7

[6] = tested on: U937 (human leukemia cells); assay: MTT cancer cell growth inhibition; type: cell-based; conditions: Homo sapiens, U-937, 72 h, MTT, 72 hours incubation, read-out: GI50 U93
Source text: as §1, §2, §3, §4, §5, §6, §7

[7] = tested on: DU145 (human prostate cancer cells); assay: MTT cancer cell growth inhibition; type: cell-based; conditions: Homo sapiens, DU-145, 72 h, MTT, 72 hours incubation, read-out: GI50 Du1
Source text: as §1, §2, §3, §4, §5, §6, §7

[8] = tested on: MOLT-4 (human acute lymphoblastic leukemia cells); assay: MTT cancer cell growth inhibition; type: cell-based; conditions: Homo sapiens, MOLT-4, 72 h, MTT, 72 hours incubation, read-out: GI50 Mol
Source text: as §1, §2, §3, §4, §5, §6, §7

[9] = tested on: HT1080 (human fibrosarcoma cells); assay: MTT cancer cell growth inhibition; type: cell-based; conditions: Homo sapiens, HT-1080, 72 h, MTT, 72 hours incubation, read-out: GI50 HT1
Source text: as §1, §2, §3, §4, §5, §6, §7

[10] = tested on: H1975 (non-small cell lung adenocarcinoma); assay: MTT cancer cell growth inhibition; type: cell-based; conditions: Homo sapiens, NCI-H1975, 72 h, MTT, 72 hours incubation, H1975 cells; read-out: GI50 H1975
Source text: as §1, §2, §3, §4, §5, §6, §7

[11] = tested on: Huh-7 (human hepatoma cells); assay: MTT cancer cell growth inhibition; type: cell-based; conditions: Homo sapiens, Huh-7, 72 h, MTT, 72 hours incubation, Huh-7 cells; read-out: GI50 Huh-7
Source text: as §1, §2, §3, §4, §5, §6, §7

[12] = tested on: BGC-823 (human gastric cancer cells); assay: MTT cancer cell growth inhibition; type: cell-based; conditions: Homo sapiens, BGC-823, 72 h, MTT, 72 hours incubation, read-out: GI50 BG
Source text: as §1, §2, §3, §4, §5, §6, §7

[13] = tested on: HCC827 (human non-small cell lung cancer cells); assay: MTT cancer cell growth inhibition; type: cell-based; conditions: Homo sapiens, HCC827, 72 h, MTT, 72 hours incubation, HCC827 cells; read-out: GI50 HCC827
Source text: as §1, §2, §3, §4, §5, §6, §7

[14] = tested on: A549 (human lung cancer cells); assay: MTT cancer cell growth inhibition; type: cell-based; conditions: Homo sapiens, A549, 72 h, MTT, 72 hours incubation, read-out: GI50 A54
Source text: as §1, §2, §3, §4, §5, §6, §7

[15] = tested on: lncap (prostate cancer cells); assay: MTT cancer cell growth inhibition; type: cell-based; conditions: Homo sapiens, LNCaP, 72 h, MTT, 72 hours incubation, read-out: GI50 lnca
Source text: as §1, §2, §3, §4, §5, §6, §7

[16] = tested on: Hela (human cervical cancer cells); assay: MTT cancer cell growth inhibition; type: cell-based; conditions: Homo sapiens, HeLa, 72 h, MTT, 72 hours incubation, read-out: GI50 Hela
Source text: as §1, §2, §3, §4, §5, §6, §7

[17] = tested on: SGC-7901 (human gastric cancer cells); assay: MTT cancer cell growth inhibition; type: cell-based; conditions: Homo sapiens, SGC-7901, 72 h, MTT, 72 hours incubation, SGC-7901 cells; read-out: GI50 SGC-7901
Source text: as §1, §2, §3, §4, §5, §6, §7

[18] = tested on: K562 (human leukemia cells); assay: MTT cancer cell growth inhibition; type: cell-based; conditions: Homo sapiens, K562, 72 h, MTT, 72 hours incubation, K562 cells; read-out: GI50 K562
Source text: as §1, §2, §3, §4, §5, §6, §7

[19] = tested on: KBM5-T315I (human chronic myelogenous leukemia); assay: MTT cancer cell growth inhibition; type: cell-based; conditions: Homo sapiens, 72 h, MTT, 72 hours incubation, KBM5-T315I cells; read-out: GI50 KBM5-T315I
Source text: as §1, §2, §3, §4, §5, §6, §7

[20] = tested on: KBM-5 (human chronic myelogenous leukemia); assay: MTT cancer cell growth inhibition; type: cell-based; conditions: Homo sapiens, KBM5, 72 h, MTT, 72 hours incubation, KBM-5 cells; read-out: GI50 KBM-5
Source text: as §1, §2, §3, §4, §5, §6, §7

HDAC7 = target: T1, HDAC7 (Homo sapiens, UniProt Q8WUI4); assay: HDAC biochemical activity measurement (fluorescent substrate deacetylation);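 also: fluorogenic deacetylation assay using acetyl-lysine substrate at 20 µM, enzyme and compound incubated 30 min at 37 °C, then developer added, fluorescence read at 360/460 nm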; conditions: HDAC7; 37° C. 30 minutes
T1 sequence (Q8WUI4 1-952): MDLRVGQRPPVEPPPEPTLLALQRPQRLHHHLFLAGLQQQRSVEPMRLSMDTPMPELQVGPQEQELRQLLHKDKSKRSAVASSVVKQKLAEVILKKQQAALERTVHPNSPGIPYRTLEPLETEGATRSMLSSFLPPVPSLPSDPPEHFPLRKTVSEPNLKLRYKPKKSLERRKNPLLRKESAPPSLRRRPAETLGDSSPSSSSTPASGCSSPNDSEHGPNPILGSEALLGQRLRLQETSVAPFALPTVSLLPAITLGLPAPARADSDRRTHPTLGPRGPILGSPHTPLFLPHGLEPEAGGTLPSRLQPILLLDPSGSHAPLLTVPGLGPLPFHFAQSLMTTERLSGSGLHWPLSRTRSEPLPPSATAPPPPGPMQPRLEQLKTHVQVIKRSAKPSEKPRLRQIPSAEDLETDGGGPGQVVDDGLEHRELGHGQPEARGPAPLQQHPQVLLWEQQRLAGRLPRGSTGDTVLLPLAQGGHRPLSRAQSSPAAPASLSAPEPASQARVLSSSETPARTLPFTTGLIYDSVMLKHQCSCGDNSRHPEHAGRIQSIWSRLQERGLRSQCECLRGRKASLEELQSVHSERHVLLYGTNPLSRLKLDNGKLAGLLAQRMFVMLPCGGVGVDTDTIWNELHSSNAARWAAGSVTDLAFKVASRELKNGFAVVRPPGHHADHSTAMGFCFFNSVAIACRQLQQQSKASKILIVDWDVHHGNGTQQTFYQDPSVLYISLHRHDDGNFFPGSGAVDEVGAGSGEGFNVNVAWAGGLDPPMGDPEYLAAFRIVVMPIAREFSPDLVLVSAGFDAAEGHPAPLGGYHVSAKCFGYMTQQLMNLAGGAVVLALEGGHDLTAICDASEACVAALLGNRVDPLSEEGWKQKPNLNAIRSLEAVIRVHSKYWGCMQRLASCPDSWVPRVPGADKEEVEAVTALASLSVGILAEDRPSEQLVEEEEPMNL

Row | Compound | GI50 ([1]; MCF-7 cells) [nM] | GI50 [2] [nM] | GI50 ([3]; PANC-1 cells) [nM] | GI50 [4] [nM] | GI50 [5] [nM] | GI50 ([6]; U937 cells) [nM] | GI50 ([7]; DU145 cells) [nM] | GI50 ([8]; MOLT-4 cells) [nM] | GI50 ([9]; HT1080 cells) [nM] | GI50 [10] [nM] | GI50 [11] [nM] | GI50 ([12]; BGC-823 cells) [nM] | GI50 [13] [nM] | GI50 ([14]; A549 cells) [nM] | GI50 ([15]; lncap cells) [nM] | GI50 [17] [nM] | GI50 [18] [nM] | GI50 [19] [nM] | GI50 [20] [nM] | IC50 HDAC7 (HDAC7) | further results
1 | C/C=C1\NC(=O)c2ncc(SC)c(n2)CNC(=O)C[C@@H](/C=C/CCSC(C)=O)OC(=O)[C@H](C)NC1=O [Compound 219] | 60 | 82 | 80 | 34 | 75 | 70 | 50 | 80 | 70 | 33 | 49 | 50 | 39 | 30 | 60 | 63 | 84 | 39 | 42 | no activity | GI50 ([16]; Hela cells): 90 nM
2 | C/C=C1\NC(=O)c2cc(SC)cc(n2)CNC(=O)C[C@@H](/C=C/CCSC(C)=O)OC(=O)[C@@H](C)NC1=O [Compound 221] | 80 | 57 | 50 | 43 | 65 | 70 | 50 | 70 | 80 | 35 | 41 | 50 | 41 | 20 | 20 | 26 | 74 | 41 | 36 | no activity | GI50 ([16]; Hela cells): 30 nM
3 | C=C1NC(=O)c2cc(F)cc(n2)CNC(=O)C[C@@H](/C=C/CCSC(C)=O)OC(=O)[C@H](C)NC1=O [Compound 91] | – | 51 | – | 46 | 62 | – | – | – | – | 38 | 46 | – | 51 | – | – | 48 | 26 | 31 | 91 | no activity | GI50 [1]: 30 nM; GI50 [3]: 50 nM; GI50 [6]: 30 nM; GI50 [7]: 20 nM; GI50 [8]: 40 nM; GI50 [9]: 50 nM; GI50 [12]: 60 nM; GI50 [14]: 40 nM; GI50 [15]: 40 nM; GI50 [16]: 90 nM
4 | C/C=C1\NC(=O)c2nc(ccc2F)CNC(=O)C[C@@H](/C=C/CCS)OC(=O)[C@H](C(C)C)NC1=O [Compound 106] | – | 66 | – | 19 | 12 | – | – | – | – | 68 | 31 | – | 43 | – | – | 35 | 27 | 76 | 56 | no activity | GI50 [1]: 30 nM; GI50 [3]: 30 nM; GI50 [6]: 20 nM; GI50 [7]: 30 nM; GI50 [8]: 30 nM; GI50 [9]: 30 nM; GI50 [12]: 20 nM; GI50 [14]: 60 nM; GI50 [15]: 30 nM; GI50 [16]: 50 nM
